In ChEMBL document CHEMBL1150587, “Evaluation of the potential cancer chemotherapeutic efficacy of natural product isolates employing in vivo hollow fiber tests” (J Nat Prod, 2002):

Assays:
[1] = test system: SW626; experiment: Growth inhibition of human SW626 cells implanted subcutaneously to NCr nu/nu mouse at 128 to 512 umol/kg, ip administered from day 3 to 6 after implantation measured on day 7 by MTT-based hollow-fiber test; assay type: functional
[2] = test system: SK-MEL-2; experiment: Cytotoxicity against human SK-MEL-2 cells after 72 hrs by SRB assay; assay type: functional, cell-based; conditions: SK-MEL-2, 72 h
[3] = Cytotoxicity against human BC1 cells after 72 hrs by SRB assay; conditions: BC1, 72 h
[4] = Cytotoxicity against human KBV1 cells after 72 hrs by SRB assay; assay type: functional, cell-based; conditions: KB-V1, 72 h
[5] = test system: SW626; experiment: Growth inhibition of human SW626 cells implanted intraperitoneally to NCr nu/nu mouse at 128 to 512 umol/kg, ip administered from day 3 to 6 after implantation measured on day 7 by MTT-based hollow-fiber test; assay type: functional
[6] = test system: Col2; experiment: Cytotoxicity against human Col2 cells after 72 hrs by SRB assay; assay type: functional, cell-based; conditions: Col2, 72 h
[7] = test system: KB; experiment: Cytotoxicity against human KB cells after 72 hrs by SRB assay; assay type: functional, cell-based
[8] = test system: Mus musculus; experiment: Toxicity in NCr nu/nu mouse subcutaneously implanted with human SW626 cells assessed as body weight change at 128 to 512 umol/kg, ip administered from day 3 to 6 after implantation measured on day 7; assay type: organism-based; conditions: in vivo
[9] = test system: SW626; experiment: Cytotoxicity against human SW626 cells after 72 hrs by SRB assay; assay type: functional, cell-based; conditions: SW626, 72 h
[10] = test system: Lu1; experiment: Cytotoxicity against human Lu1 cells after 72 hrs by SRB assay; assay type: functional, cell-based; conditions: Lu1, 72 h
[11] = test system: P388; experiment: Cytotoxicity against mouse P388 cells after 72 hrs by SRB assay; assay type: functional, cell-based; conditions: P388, 72 h
[12] = test system: MCF7; experiment: Cytotoxicity against human MCF7 cells after 72 hrs by SRB assay; conditions: MCF7, 72 h
[13] = test system: LNCaP; experiment: Cytotoxicity against human LNCAP cells after 72 hrs by SRB assay; assay type: functional, cell-based

In the case of `CC1(C)CCC2=C(O1)C(=O)c1ccccc1C2=O` [ALPHA-LAPACHONE], the “inhibition (INH)” value [1] is reported as 10.3%, the IC50 [2] is reported as 7.9 µM and the IC50 [3] is reported as 27.7 µM. For the same molecule, the IC50 [4] was 34.3 µM, the “inhibition (INH)” value [5] was 0% and the IC50 [6] was 40.9 µM. For the same molecule, the IC50 [7] was 53.7 µM, the Activity [8] was 0.3 g and the IC50 [9] was 12.4 µM. It also gave an IC50 [10] of 21.9 µM, an IC50 [11] of 0.8 µM and an IC50 [12] of 38 µM. The IC50 [13] was 29.3 µM.
